This test concerns the target Poly [ADP-ribose] polymerase 1 (Homo sapiens, UniProt P09874). The test is described as follows: Inhibition of human recombinant PARP1 by Trevigen colorimetric assay.

By IC50 is commonly meant the concentration that inhibits the measured activity by half.

Sequence of Poly [ADP-ribose] polymerase 1 (P09874 whole entry): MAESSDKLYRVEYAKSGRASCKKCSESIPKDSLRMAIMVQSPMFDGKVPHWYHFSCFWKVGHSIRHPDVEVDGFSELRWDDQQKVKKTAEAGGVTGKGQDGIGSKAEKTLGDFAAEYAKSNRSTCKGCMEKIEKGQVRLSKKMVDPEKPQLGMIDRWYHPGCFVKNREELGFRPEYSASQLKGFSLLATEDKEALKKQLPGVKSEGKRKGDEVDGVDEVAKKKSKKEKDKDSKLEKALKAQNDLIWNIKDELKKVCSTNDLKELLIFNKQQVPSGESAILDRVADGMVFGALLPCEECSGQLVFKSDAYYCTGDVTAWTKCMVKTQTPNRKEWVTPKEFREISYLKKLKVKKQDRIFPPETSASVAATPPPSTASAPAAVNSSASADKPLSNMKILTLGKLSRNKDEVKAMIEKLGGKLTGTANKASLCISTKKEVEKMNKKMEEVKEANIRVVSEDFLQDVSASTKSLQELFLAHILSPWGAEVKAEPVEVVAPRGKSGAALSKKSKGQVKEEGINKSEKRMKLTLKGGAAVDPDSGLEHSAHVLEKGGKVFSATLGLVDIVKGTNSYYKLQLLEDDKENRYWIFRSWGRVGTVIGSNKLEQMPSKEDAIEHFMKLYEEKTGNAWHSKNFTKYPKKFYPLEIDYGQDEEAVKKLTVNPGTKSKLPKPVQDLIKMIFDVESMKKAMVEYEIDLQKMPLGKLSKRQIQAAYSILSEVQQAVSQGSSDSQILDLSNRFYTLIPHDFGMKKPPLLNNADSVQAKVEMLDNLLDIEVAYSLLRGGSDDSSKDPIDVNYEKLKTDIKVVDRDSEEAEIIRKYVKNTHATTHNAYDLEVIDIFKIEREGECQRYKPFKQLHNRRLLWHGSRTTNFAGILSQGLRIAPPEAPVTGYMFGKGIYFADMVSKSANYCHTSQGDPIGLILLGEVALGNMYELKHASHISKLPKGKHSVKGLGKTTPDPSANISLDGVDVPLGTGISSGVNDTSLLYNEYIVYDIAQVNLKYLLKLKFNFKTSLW

For the compound `Nc1cccc2c(=O)[nH]ccc12`, the half-inhibitory concentration (IC50) came to 1800 nM.

(Values after ChEMBL document CHEMBL1143312, “Design, synthesis, and evaluation in vitro of quinoline-8-carboxamides, a new class of poly(adenosine-diphosphate-ribose)polymerase-1 (PARP-1) inhibitor” (J Med Chem, 2009).)
